According to publication PMC8078842 (PLoS Neglected Tropical Diseases, 2021):
Where two headings read alike, the source gives them in different places.

How the values were obtained:
[1] = tested on: Adrenergic, Alpha 1, Non-selective; assay: CNS side effect panel, [^3H]7-MeOxy-Prazosin; assay type: binding; conditions: pentamidine 1.0E^-5 M
Opioid, Non-selective = assay: CNS side effect panel, [^3H]Naloxone; assay type: binding
[2] = tested on: Adrenergic, Alpha 2, Non-selective; assay: CNS side effect panel, [^3H]RX821002; assay type: binding; conditions: pentamidine 1.0E^-5 M
[3] = tested on: Adrenergic, Beta, Non-selective; assay: CNS side effect panel, [^3H]DHA; assay type: binding; conditions: pentamidine 1.0E^-5 M
Dopamine, D1 (h) = molecular target: T1, Dopamine, D1 (h) (Homo sapiens, UniProt P21728); assay: CNS side effect panel, [^3H]-SCH23390; assay type: binding; conditions: pentamidine 1.0E^-5 M
T1 construct: purchased Perkin-Elmer Science Discovery Systems (NovaScreen), customised CNS screening panel

Dopamine, D2s (h) = molecular target: T2, Dopamine, D2s (h) (Homo sapiens, UniProt P14416); assay: CNS side effect panel, [^3H]-Raclopride; assay type: binding; conditions: pentamidine 1.0E^-5 M
T2 construct: purchased Perkin-Elmer Science Discovery Systems (NovaScreen), customised CNS screening panel

[4] = tested on: Nicotinic, Neuronal (a-BnTx insensitive); assay: CNS side effect panel, [^3H]Epibatidine; assay type: binding; conditions: pentamidine 1.0E^-5 M
Sigma, Non-selective = assay: CNS side effect panel, [^3H]DTG; assay type: binding; conditions: pentamidine 1.0E^-5 M
[5] = tested on: Potassium Channel, Ca2+ Act., VI; assay: CNS side effect panel, [^125I]Apamin; assay type: binding; conditions: pentamidine 1.0E^-5 M
[6] = tested on: Glutamate, AMPA Site (Ionotropic); assay: CNS side effect panel, [^3H]AMPA; assay type: binding; conditions: pentamidine 1.0E^-5 M
Serotonin, Non-selective = assay: CNS side effect panel, [^3H] LSD; assay type: binding; conditions: pentamidine 1.0E^-5 M
[7] = tested on: Glycine, Strychnine-sensitive; assay: CNS side effect panel, [^3H]Strychnine; assay type: binding; conditions: pentamidine 1.0E^-5 M
[8] = tested on: Trypanosoma brucei gambience; conditions: cited from earlier work
[9] = tested on: NMDA (Ionotropic) glutamate receptor; conditions: Voltage dependent; cited from earlier work
Rat NMDA receptor = conditions: Rat brain membrane 3H-dizocilpine binding; cited from earlier work
PRL phosphatases = conditions: Oncology target; cited from earlier work
Delta2glutamate receptor = conditions: Voltage independent; cited from earlier work
[10] = tested on: Acid sensing ion channels (ASIC); conditions: Potency 1b>3>2a>or = 1a; cited from earlier work

T1 sequence (P21728 whole entry): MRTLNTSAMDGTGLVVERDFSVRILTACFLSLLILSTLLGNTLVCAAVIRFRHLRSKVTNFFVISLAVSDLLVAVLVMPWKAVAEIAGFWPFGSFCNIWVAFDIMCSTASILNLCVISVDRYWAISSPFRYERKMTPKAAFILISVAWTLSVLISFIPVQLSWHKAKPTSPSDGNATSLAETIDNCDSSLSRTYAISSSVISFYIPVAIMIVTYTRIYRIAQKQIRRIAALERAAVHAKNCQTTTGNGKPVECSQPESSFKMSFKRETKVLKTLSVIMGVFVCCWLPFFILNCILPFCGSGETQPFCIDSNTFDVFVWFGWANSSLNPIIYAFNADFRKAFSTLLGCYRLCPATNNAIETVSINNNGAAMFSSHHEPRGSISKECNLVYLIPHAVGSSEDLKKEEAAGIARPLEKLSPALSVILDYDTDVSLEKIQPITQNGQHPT
T2 sequence (P14416 1-414 isoform P14416-2): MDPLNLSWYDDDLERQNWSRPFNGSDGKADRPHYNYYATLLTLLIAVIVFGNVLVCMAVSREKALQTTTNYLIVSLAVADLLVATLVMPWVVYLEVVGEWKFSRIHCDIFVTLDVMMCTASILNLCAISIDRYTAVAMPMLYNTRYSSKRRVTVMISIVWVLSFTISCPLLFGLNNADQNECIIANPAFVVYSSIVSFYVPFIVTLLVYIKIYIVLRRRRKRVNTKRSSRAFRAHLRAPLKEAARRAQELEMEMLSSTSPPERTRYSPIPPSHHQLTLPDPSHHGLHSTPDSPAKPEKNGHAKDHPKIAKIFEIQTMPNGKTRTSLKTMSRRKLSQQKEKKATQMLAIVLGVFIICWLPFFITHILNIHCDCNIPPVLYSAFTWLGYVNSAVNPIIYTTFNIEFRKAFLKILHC

SMILES: N=C(N)c1ccc(OCCCCCOc2ccc(C(=N)N)cc2)cc1 [Pentamidine, 1,5-bis-4ρ-amidinophenoxypentane]
- Percent Inhibition [1]: 100.77%
- Ki (Opioid, Non-selective; Opioid, concentration-response): 1410 nM
- Percent Inhibition (Opioid, Non-selective; pentamidine 1.0E^-5 M): 76.00%
- Percent Inhibition [2]: 56.14%
- Percent Inhibition [3]: 55.37%
- Percent Inhibition (Dopamine, D1 (h)): 27.48%
- Percent Inhibition (Dopamine, D2s (h)): 20.12%
- Percent Inhibition [4]: 10.87%
- Percent Inhibition (Sigma, Non-selective): 6.50%
- Percent Inhibition [5]: 2.07%
- Percent Inhibition [6]: 1.34%
- Percent Inhibition (Serotonin, Non-selective): 0.09%
- Percent Inhibition [7]: -0.22%
- Affinity, Trypanocidal ([8]; Time-dependent): 0.01 µM
- trypanocidal activity in vitro [8]: around 10 nM
- IC50 ([8]; comparator for relative selectivity, read-out: Trypanocidal Activity (IC50), printed in column Ki): 10 nM
- IC50 ([8]; read-out: IC50): 14.7 ± 4.7 nM
- Affinity [9]: 0.2 µM
- Affinity (Rat NMDA receptor): 1.8 µM
- Affinity (PRL phosphatases): 3 µM
- Affinity (Delta2glutamate receptor): 5 µM
- Affinity [10]: 38 µM
